# Assay results taken from patent US7914785B2, “B-cell depleting agents, like anti-CD20 antibodies or fragments thereof for the treatment of chronic fatigue syndrome” (Bergen Teknologieverforing AS, priority 2009, dated 2011).
# Key:
# [1] = system: CFS symptoms in patients with chronic fatigue syndrome; assay: Pilot treatment of three CFS patients with Rituximab infusions and weekly oral Methotrexate; type: in vivo, human; details: pilot patient 1, weekly oral low-dose 7.5 to 12.5 mg per week; for clinical response on CFS symptoms: used for 22 weeks
# Source text: The symptom score of CFS symptoms which is in a range of 0 to 10 wherein 0 means no symptoms while 10 refers to very severe symptoms of CFS.
# Methotrexat (Mtx) is a therapeutic agent with known (but not well understood) immunomodulatory properties.
# [2] = system: B-cells in rheumatoid arthritis patients; details: given orally on a weekly schedule for rheumatoid arthritis; cited from earlier work
# [3] = system: patients with CFS; details: six patients with CFS; cited from earlier work
# [4] = system: patients with long-standing fatigue; details: 12 patients treated; cited from earlier work
# [5] = system: CFS patients; details: 99 CFS patients; cited from earlier work
molecule,measurement,setting,value
CN(Cc1cnc2nc(N)nc(N)c2n1)c1ccc(C(=O)N[C@@H](CCC(=O)O)C(=O)O)cc1 [Methotrexate],start of CFS symptom recovery after onset of weekly treatment,[1],10 weeks
same,clinical response on CFS symptoms,[1],significant and moderate clinical response on CFS symptoms
same,clinical response on CFS symptoms,[1]; listed as Mtx,gradual and moderate CFS symptom recovery
same,start of CFS symptom recovery after onset of weekly treatment,[1]; listed as Mtx,12 weeks
same,B-cell depletion,[2],moderate B-cell depletion
etanercept,clinical outcome,[3],clinical benefit
CC(C)[C@H](N)C(=O)OCC(CO)OCn1cnc2c(=O)nc(N)[nH]c21 (some centres unmarked) [valganciclovir],patients with improvement of the symptoms,[4],nine
CC[C@H]1OC(=O)[C@H](C)[C@@H](O[C@H]2C[C@@](C)(OC)[C@@H](O)[C@H](C)O2)[C@H](C)[C@@H](O[C@@H]2O[C@H](C)C[C@H](N(C)C)[C@H]2O)[C@](C)(O)C[C@@H](C)CN(C)[C@H](C)[C@@H](O)[C@]1(C)O [azithromycin],CFS patients with improvement,[5],59%
